Assay results reported in PubChem BioAssay (NCI).
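Following 48 hours of exposure in 96-well plates, responses at five concentrations were used to interpolate endpoints linearly. GI50 = concentration required for 50% inhibition of growth. TGI: concentration producing complete growth inhibition.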

Legend:
Assay in all cases: growth of human tumour cells (NCI), 48 h
BT-549 breast = test system: BT-549 breast
EKVX NSCLC = test system: EKVX NSCLC
SNB-75 CNS = test system: SNB-75 CNS
HCT-15 colon = test system: HCT-15 colon
CCRF-CEM leukemia = test system: CCRF-CEM leukemia
A549 NSCLC = test system: A549 NSCLC
HOP-92 NSCLC = test system: HOP-92 NSCLC
SF-268 CNS = test system: SF-268 CNS
HCT-116 colon = test system: HCT-116 colon
SN12C renal = test system: SN12C renal

| SMILES | GI50 (BT-549 breast) [µM] | TGI (BT-549 breast) [µM] | GI50 (EKVX NSCLC) [µM] | TGI (EKVX NSCLC) [µM] | GI50 (SNB-75 CNS) [µM] | TGI (SNB-75 CNS) [µM] | GI50 (HCT-15 colon) [µM] | TGI (HCT-15 colon) [µM] | GI50 (CCRF-CEM leukemia) [µM] | TGI (CCRF-CEM leukemia) [µM] | GI50 (A549 NSCLC) [µM] | TGI (A549 NSCLC) [µM] | GI50 (HOP-92 NSCLC) [µM] | TGI (HOP-92 NSCLC) [µM] | GI50 (SF-268 CNS) [µM] | TGI (SF-268 CNS) [µM] | GI50 (HCT-116 colon) [µM] | TGI (HCT-116 colon) [µM] | GI50 (SN12C renal) [µM] | TGI (SN12C renal) [µM] |
| --- | --- | --- | --- | --- | --- | --- | --- | --- | --- | --- | --- | --- | --- | --- | --- | --- | --- | --- | --- | --- |
| COc1c2ccccc2c(O)c2c(=O)c(C(=O)O)cn(C)c12 | > 100 | > 100 | 85.2 | > 100 | > 100 | > 100 | > 100 | > 100 | > 100 | > 100 | > 100 | > 100 | 56.9 | > 100 | > 100 | > 100 | > 100 | > 100 | – | – |
| CC[N+](CC)=c1ccc2nc3c(cc(NCc4ccccc4)c4ccccc43)oc-2c1 | 1.14 | 2.51 | 0.159 | 0.944 | 0.385 | 0.808 | 0.378 | 2.29 | 0.476 | 7.15 | 0.215 | 0.56 | 0.217 | 1.33 | 0.307 | 1.51 | 0.154 | 0.709 | 1.02 | 2.34 |
| O=c1cccc(C#Cc2ccccc2)o1 | 2.57 | 12.2 | 5.21 | 32.1 | 42.3 | > 100 | 6.9 | 23.6 | – | > 44 | 11.1 | > 90.9 | 2.06 | 13.8 | 5.34 | > 96.7 | 2.8 | 26.2 | 14.5 | > 53.2 |
| Cc1ccc(N=C2CSc3nnc(-c4csc5c4CCCC5)n3N2)cc1 | 0.458 | > 50 | 0.209 | > 50 | 0.13 | 17.2 | 0.227 | > 50 | 0.158 | > 50 | 0.265 | > 50 | 1.97 | > 50 | 0.561 | > 50 | 0.225 | > 50 | 0.406 | > 50 |
| COc1cc2c3c(n(CCCN4CCN(C)CC4)c(=O)c2cc1OC)-c1cc2c(cc1C3=O)OCO2 | 80.8 | > 100 | 17.7 | 41.1 | 16 | 36 | 16 | 36.1 | 2.44 | 17.7 | 18.7 | 84.2 | 19.8 | 46.9 | 11.9 | 41.8 | 1.49 | 11.5 | 11.4 | 24.1 |
| COc1cc2cc(Oc3ccc(NC(=O)Nc4ccccc4)cc3)c(C)nc2cc1OCCN1CCCCC1 | 5.63 | 11.2 | 5.22 | 10.9 | 3.76 | 8.74 | 4.18 | 9.14 | 1.05 | 4.29 | 7.26 | 18.6 | 2.72 | 7.66 | 5.88 | 12.6 | 4.77 | 10.1 | 5.15 | 10.2 |
